# US12723063B2, “GIPR-agonist compounds” (Eli Lilly and Company, priority 2019, dated 2026)
# *1 amine or outer side, *2 acyl side, *3 side chain or, on linkers, in order; H or OH if unused. Where a SMILES comes first, the peptide text is derived from it. Side-chain parts run from the residue outwards. [ ]: non-standard residue; d: D form. The star is where a group is joined. C20 diacid = O=C(O)CCCCCCCCCCCCCCCCCCC(=O)*; C18 diacid = O=C(O)CCCCCCCCCCCCCCCCC(=O)*; γGlu = O=C(O)[C@H](CCC(=O)[*:2])N[*:1]; αMeL = CC(C)C[C@](C)(N)C(=O)O; AEEA = NCCOCCOCC(=O)O; Aib = CC(C)(N)C(=O)O
# Tests used:
# human GIPR = biological target: T1, human GIPR (Homo sapiens, UniProt P48546); experiment: [125I]-GIP binding, SPA with WGA beads, 0.1% bacitracin; conditions: geometric mean, read-out: hGIPR Ki
# T1 construct: expressed in transfected cells; crude membranes
# T1 sequence (P48546 22-466): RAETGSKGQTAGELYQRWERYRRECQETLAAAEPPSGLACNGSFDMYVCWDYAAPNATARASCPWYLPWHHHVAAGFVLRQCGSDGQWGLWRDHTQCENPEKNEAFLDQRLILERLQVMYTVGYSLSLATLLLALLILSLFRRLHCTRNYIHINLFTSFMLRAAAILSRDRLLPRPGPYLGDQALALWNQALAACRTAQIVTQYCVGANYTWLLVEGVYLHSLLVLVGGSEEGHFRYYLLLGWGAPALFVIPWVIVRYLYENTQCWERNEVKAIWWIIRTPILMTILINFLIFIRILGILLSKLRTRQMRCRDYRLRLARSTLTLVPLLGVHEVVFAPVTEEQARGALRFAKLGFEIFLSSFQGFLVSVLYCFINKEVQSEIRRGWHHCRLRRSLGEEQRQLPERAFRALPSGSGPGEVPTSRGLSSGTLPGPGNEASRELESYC
# Method in brief: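 Ki values are geometric means (SEM, n independent days), derived from four-parameter nonlinear regression of IC50. Membranes came from hGIPR-expressing CHO cells.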
# [1] = biological target: T2, human GLP-1 receptor (GLP-1R) (Homo sapiens, UniProt P43220); experiment: cAMP functional assay (HTRF) in HEK293 cells in presence of 0.1% casein; format: cell-based; conditions: HEK293 cells expressing human GLP-1R, geometric mean, read-out: hGLP1R cAMP Rel EC50 nM (SEM, n)
# T2 construct: expressed in transfected cells; host or cells: HEK293
# T2 sequence (P43220 24-463): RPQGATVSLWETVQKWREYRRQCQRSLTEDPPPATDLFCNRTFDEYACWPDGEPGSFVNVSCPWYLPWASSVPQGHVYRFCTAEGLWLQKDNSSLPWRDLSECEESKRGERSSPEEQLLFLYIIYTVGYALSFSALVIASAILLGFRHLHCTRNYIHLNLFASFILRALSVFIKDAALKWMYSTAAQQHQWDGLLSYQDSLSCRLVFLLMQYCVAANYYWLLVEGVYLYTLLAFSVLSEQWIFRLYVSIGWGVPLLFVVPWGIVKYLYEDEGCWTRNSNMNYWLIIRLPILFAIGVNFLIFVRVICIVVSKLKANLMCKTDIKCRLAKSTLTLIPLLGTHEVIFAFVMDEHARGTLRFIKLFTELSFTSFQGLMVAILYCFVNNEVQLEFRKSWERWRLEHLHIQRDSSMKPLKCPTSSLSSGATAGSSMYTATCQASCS
Structure (SMILES),Ki (human GIPR) [nM],EC50 [1] [nM]
CC[C@H](C)[C@H](NC(=O)[C@H](CO)NC(=O)[C@H](Cc1ccc(O)cc1)NC(=O)[C@H](CC(=O)O)NC(=O)[C@H](CO)NC(=O)[C@@H](NC(=O)[C@H](Cc1ccccc1)NC(=O)[C@@H](NC(=O)CNC(=O)[C@H](CCC(=O)O)NC(=O)C(C)(C)NC(=O)[C@@H](N)Cc1ccc(O)cc1)[C@@H](C)O)[C@@H](C)CC)C(=O)N[C@@H](CC(C)C)C(=O)N[C@@H](CC(C)C)C(=O)N[C@@H](CC(=O)O)C(=O)N[C@@H](CCCCN)C(=O)N[C@@H](CCCCNC(=O)COCCOCCNC(=O)COCCOCCNC(=O)CC[C@H](NC(=O)CCCCCCCCCCCCCCCCC(=O)O)C(=O)O)C(=O)N[C@@H](Cc1c[nH]cn1)C(=O)N[C@@H](CCC(N)=O)C(=O)NC(C)(C)C(=O)N[C@@H](CC(=O)O)C(=O)N[C@@H](Cc1ccccc1)C(=O)N[C@H](C(=O)N[C@@H](CC(N)=O)C(=O)N[C@@H](Cc1ccc(O)cc1)C(=O)N[C@@H](CC(C)C)C(=O)N[C@@H](CC(C)C)C(=O)N[C@@H](C)C(=O)N[C@@H](C)C(=O)NCC(=O)N1CCC[C@H]1C(=O)N[C@@H](CO)C(=O)N[C@@H](CO)C(=O)NCC(=O)N[C@@H](C)C(=O)N1CCC[C@H]1C(=O)N1CCC[C@H]1C(=O)N1CCC[C@H]1C(=O)N[C@@H](CO)C(N)=O)C(C)C [Example 31] (H-Y[Aib]EGTFISDYSILLDKK([AEEA-AEEA-γGlu-C18 diacid])HQ[Aib]DFVNYLLAAGPSSGAPPPS-NH2),0.0473,> 5000
CC[C@H](C)[C@H](NC(=O)[C@H](CC(C)C)NC(=O)[C@@H](NC(=O)CNC(=O)[C@H](CCC(=O)O)NC(=O)C(C)(C)NC(=O)[C@@H](N)Cc1ccc(O)cc1)[C@@H](C)O)C(=O)N[C@@H](CO)C(=O)N[C@@H](CC(=O)O)C(=O)N[C@@H](Cc1ccc(O)cc1)C(=O)N[C@@H](CO)C(=O)N[C@H](C(=O)N[C@@](C)(CC(C)C)C(=O)N[C@@H](CC(C)C)C(=O)N[C@@H](CC(=O)O)C(=O)N[C@@H](CCCCN)C(=O)N[C@@H](CCCCNC(=O)COCCOCCNC(=O)COCCOCCNC(=O)CC[C@H](NC(=O)CCCCCCCCCCCCCCCCCCC(=O)O)C(=O)O)C(=O)N[C@@H](Cc1c[nH]cn1)C(=O)N[C@@H](CCC(N)=O)C(=O)NC(C)(C)C(=O)N[C@@H](CCC(=O)O)C(=O)N[C@@H](Cc1ccccc1)C(=O)N[C@H](C(=O)N[C@@H](CCC(=O)O)C(=O)N[C@@H](Cc1ccc(O)cc1)C(=O)N[C@@H](CC(C)C)C(=O)N[C@@H](CC(C)C)C(=O)N[C@@H](CCC(=O)O)C(=O)NCC(=O)NCC(=O)N1CCC[C@H]1C(=O)N[C@@H](CO)C(=O)N[C@@H](CO)C(=O)NCC(=O)N[C@@H](C)C(=O)N1CCC[C@H]1C(=O)N1CCC[C@H]1C(=O)N1CCC[C@H]1C(=O)N[C@@H](CO)C(N)=O)C(C)C)[C@@H](C)CC [Example 73] (H-Y[Aib]EGTLISDYSI[αMeL]LDKK([AEEA-AEEA-γGlu-C20 diacid])HQ[Aib]EFVEYLLEGGPSSGAPPPS-NH2),0.036,> 5000
